The text below walks through data of US8999937B2, “Glucocorticoid induced leucine zipper mimetics as therapeutic agents in multiple sclerosis” (Indiana University Research and Technology Corporation, priority 2011, dated 2015).

“Also recorded” adds a separate entry of the source.

The subject of experiment [1] is activated p65 NF-κB subunit. The experiment in a line: NF-κB assay (TransAM): p65 DNA binding in nuclear extracts. It counts as cell-based, mouse. To be noted: CD4+ LNC restimulated with PLP139-151, 24 h. On the procedure:
Nuclear and cytoplasmic protein fractions of CD4+ T cells obtained using a nuclear extraction kit are assessed for NF-κB activation and p65 nuclear translocation using Trans^AM NF-κB kits (Active Motif, Carlsbad, Calif.). The effect of exogenous GILZ and GILZ mimetics on phosphorylation and proteolytic degradation of IκB proteins is determined by Western blot analysis of nuclear and cytoplasmic protein fractions from CD4+ T cells pretreated with GILZ/chariot peptide complex prior to stimulation.
5 μg of nuclear extracts isolated from PLP139-151 restimulated CD4+ cells from R-EAE mice were incubated in a 96-well plate coated with oligonucleotides containing the NF-κB consensus binding site. The activated NF-κB bound to DNA was detected by anti-p65 antibody followed by a peroxidase-coupled secondary antibody and substrate using the TransAM kit protocol (Active Motif).

The subject of experiment [2] is CD4+ splenocytes from R-EAE mice. As to the kind of experiment: Ex vivo proliferation of CD4+ splenocytes from treated R-EAE mice. It counts as in vivo, mouse. To be noted: for proliferative responses (mean Δcpm) to PLP139-151: mice treated on day 0, cells 45 days post-immunization; for average proliferative response of unstimulated CD4+ splenocytes: in cpm. As to the method: (§1) Data represent average±S.D. from two experiments (n=9/group). (C)-(H) show GILZ-peptide treatment suppresses Th1 cytokines in R-EAE. […] C, proliferative responses of CD4+ splenocytes are plotted as Δcpm±S.E. #, p<0.05 as compared with the responses of cells from vehicle-treated mice. Supernatant collected at 48 h from separate CD4+ splenocyte cultures were assessed for (D) IL-12, (E) IFN-γ, (F) IL-17, (G) IL-10, and (H) TGF-β by ELISA. * and # represent p<0.05 as compared with vehicle or control peptide-treated groups, respectively.
(§2) Supernatants collected at 24 and 48 h were assessed for specific cytokines using the OptEIA kits (BD Biosciences). Proliferation assays included parallel cultures for 72 h with a final 18-h pulse with [^3H]thymidine measured by liquid scintillation counting (Microbeta, Turku, Finland).

In experiment [3] the test system is T-bet, GATA-3, IL-10 and FoxP3 mRNA. As to the kind of experiment: Quantitative RT-PCR in CD4+ LNC from treated R-EAE mice. It counts as in vivo, mouse. To be noted: for GATA-3 mRNA / T-bet mRNA: mice treated on day 0, re-stimulation with PLP139-151; for FoxP3 mRNA / IL-10 mRNA: mice treated on day 0, vs vehicle/control-P. On the procedure:
50 ng of cDNA from CD4+LNC were used for quantitative measurement of message for (A) T-bet, (B) GATA-3, (C) IL-10, and (D) FoxP3 by quantitative RT-PCR. (E), gel electrophoresis of representative products. * and # represent p<0.05 by analysis of variance as compared with vehicle or control peptide-treated group, respectively.

Experiment [4] deals with CD4+ splenocytes/LNC from R-EAE mice. The experiment in a line: Ex vivo cytokine secretion (ELISA) by CD4+ cells from treated R-EAE mice. It counts as in vivo, mouse. As to the method:
as §1
Supernatants collected 48 hrs later were assessed for cytokines using Opt EIA kits according to the manufacturer's recommendations (BD PharMingen). Differences between the groups in the mean clinical score and cytokine secretion were determined by a one-way ANOVA with Tukey's posthoc. Results were considered significant at p<0.05.
as §2
(In general: In an ELISA, binding on a coated surface is turned into a signal by an enzyme label.)

For experiment [5], the system named is T-bet and GATA-3 mRNA. The experiment in a line: Real time PCR for T-bet and GATA-3 in CD4+ LNC restimulated in vitro. The following applies: CD4+ LNC restimulated in vitro with PLP139-151. It counts as cell-based, mouse. As to the method: Intracellular delivery of r-GILZ was detected using […]-labeled anti-DDK mAb in permeabilized cells and measured by FACS Calibur. […] The delivery efficiency was assessed by mean fluorescence intensity (D). […] (F)-(I) show supernatants collected at 48 h were assessed for IFN-γ (F), IL-12 (G), IL-17 (H), and IL-10 (I) by ELISA. […] Five micrograms of nuclear extracts were tested for binding of the activated p65 NF-κB subunit to an NF-κB consensus sequence using the TransAM NF-κB ELISA kit. The p65 DNA binding activity was calculated as the ratio of absorbance from PLP139-151-stimulated cells to that of unstimulated cells. Values are the average±S.D. performed 3 times in duplicate. (K)-(L) show real time PCR for T-bet (K) and GATA-3 (L) was performed using 50 ng of cDNA isolated from CD4+LNC of R-EAE mice re-stimulated in vitro with PLP139-151 under the indicated conditions.
Proliferative responses of CD4+ lymph node cells and splenocytes harvested 10 days post-induction upon re-stimulation in vitro with PLP^139-151 in the presence or absence of chariot peptide complexed with purified GILZ protein and/or GILZ mimetics at varying concentrations is determined as described. IL-2, TNF-α, IFN-γ, IL12-p40, IL-17, IL-4, IL-5, IL-10 and TGF-β) of the cells following similar in vitro restimulation is determined by ELISA. Measurement of relative quantities of Th1 and Th2 specific transcription factors is determined by real time PCR using ABI primers.
Background: Quantitative PCR measures a nucleic acid by following its amplification.

The mark [6] stands for this setting: Example 1, LNC 45 days post-immunization, PLP139-151 and/or MBP87-99, vs vehicle/control peptide.
Setting [7] is: Example 1, LNC 45 days post-immunization, PLP139-151 or MBP87-99, vs vehicle/control peptide.
[8] abbreviates: MBP87-99 stimulation, mice treated on day 0.
Setting [9] is: PLP139-151 re-stimulation, mice treated on day 0.
The mark [10] stands for this setting: mice treated 12 days post-immunization.

As to Ac-CLSPEEPAPESPQVPEAPGGSAV-NH2 [GILZ-P], the “p65-specific DNA binding activity in nuclear extracts” value in experiment [1] was “significantly decreased”. Besides, the “proliferative responses (mean Δcpm) to PLP139-151” value in experiment [2] is recorded as 5,733±208 cpm. Also, in experiment [2] (mice treated on day 0), the “average proliferative response of unstimulated CD4+ splenocytes” value (“average proliferative response” for short) is 2,376±602. For the same substance, the “average proliferative response” value in experiment [2] (mice treated on day 12) is recorded as 1,823±532. In addition, in experiment [3], the “GATA-3 mRNA” value is recorded as “elevated”, the “T-bet mRNA” value was “significantly lower”, the “FoxP3 mRNA” value is on record as “significantly higher” and the “IL-10 mRNA” value was “significantly higher”. Besides, the IL-10 secretion entry in experiment [4] (setting [6]) was “higher”. In experiment [4] (setting [7]), the IFN-γ secretion result was “significantly reduced”, the IL-12 secretion entry is given as “significantly reduced” and the TNF-α secretion entry is reported as “significantly reduced”. In experiment [4] (setting [8]), this substance showed an IFN-γ secretion of 97.4 ± 6.9 pg/mL, an IL-10 secretion of 1850.8 ± 90 pg/mL, an IL-12 secretion of 28.4 ± 1.6 pg/mL and an IL-17 secretion of 10.43 ± 0.4 pg/mL. In experiment [4] (setting [8]), this substance came in with a TGF-β secretion of 33.31 ± 4 pg/mL. In addition, in experiment [4] (setting [9]), the IFN-γ secretion was 96.5 ± 7.1 pg/mL, the IL-12 secretion amounted to 12.7 ± 0.47 pg/mL and the IL-17 secretion was determined as 10.85 ± 0.3 pg/mL. The IL-10 secretion in experiment [4] (PLP139-151 stimulation, mice treated on day 0) is 2316 ± 52.9 pg/mL. Further, in experiment [4] (setting [10]), the “IL-12 secretion, in words” value is reported as “significantly lower” and the “reduction in IFN-γ, in words” value is on record as “not significant”. For the same substance, in experiment [5], the “GATA-3 mRNA” value is reported as “elevated” and the “T-bet mRNA” value is listed as “significantly decreased”. In experiment [5] (listed as GILZ-peptide), the “GATA-3 mRNA” value was “up-regulated” and the “T-bet mRNA” value is “down-regulated”.
As to “r-GILZ: recombinant glucocorticoid induced leucine zipper protein (Abnova; OriGene with C-terminal DDK)”, in experiment [1], the “p65-specific DNA binding activity in nuclear extracts” value was “significantly decreased”. For the same substance, the “proliferative responses (mean Δcpm) to PLP139-151” value in experiment [2] is on record as 16,880±264 cpm. The “average proliferative response” value in experiment [2] (mice treated on day 0) is given as 2,037±603. In experiment [3], the “GATA-3 mRNA” value is given as “elevated”, the “T-bet mRNA” value is recorded as “significantly lower”, the “FoxP3 mRNA” value is listed as “significantly higher” and the “IL-10 mRNA” value is given as “significantly higher”. Besides, the IL-10 secretion result in experiment [4] (setting [6]) is reported as “higher”. Moreover, in experiment [4] (setting [7]), the IFN-γ secretion entry is given as “significantly reduced”, the IL-12 secretion result is “significantly reduced” and the TNF-α secretion result is “significantly reduced”. In addition, in experiment [4] (setting [8]), the IL-10 secretion stood at 1667 ± 63.7 pg/mL and the TGF-β secretion amounted to 31.7 ± 0.8 pg/mL. In experiment [4] (setting [9]), this substance returned an IFN-γ secretion of 100.5 ± 6.8 pg/mL, an IL-12 secretion of 22.5 ± 01.05 pg/mL and an IL-17 secretion of 10.66 ± 0.2 pg/mL. Moreover, in experiment [5], the “GATA-3 mRNA” value is on record as “up-regulated; also recorded: elevated” and the “T-bet mRNA” value is given as “down-regulated; also recorded: significantly decreased”.
